# Source: patent publication US8541449B2, “Substituted isoquinolines and isoquinolinones as Rho kinase inhibitors” (Sanofi, priority 2008, dated 2013)
# Columns and labels:
# Assay type in all cases: biochemical
# [1] = biological target: T1, recombinant human PKG1-beta (Homo sapiens, UniProt Q13976); test: Determination of Protein Kinase G inhibition (Caliper peptide phosphorylation assay); settings: recombinant human PKG1-beta versus ROCK II
# T1 construct: Active recombinant human PKG1-beta (full-length, with N-terminal His-tag); His-tag (N); purchased Millipore GmbH, Schwalbach, Germany
# T1 sequence (Q13976 1-686 isoform Q13976-2): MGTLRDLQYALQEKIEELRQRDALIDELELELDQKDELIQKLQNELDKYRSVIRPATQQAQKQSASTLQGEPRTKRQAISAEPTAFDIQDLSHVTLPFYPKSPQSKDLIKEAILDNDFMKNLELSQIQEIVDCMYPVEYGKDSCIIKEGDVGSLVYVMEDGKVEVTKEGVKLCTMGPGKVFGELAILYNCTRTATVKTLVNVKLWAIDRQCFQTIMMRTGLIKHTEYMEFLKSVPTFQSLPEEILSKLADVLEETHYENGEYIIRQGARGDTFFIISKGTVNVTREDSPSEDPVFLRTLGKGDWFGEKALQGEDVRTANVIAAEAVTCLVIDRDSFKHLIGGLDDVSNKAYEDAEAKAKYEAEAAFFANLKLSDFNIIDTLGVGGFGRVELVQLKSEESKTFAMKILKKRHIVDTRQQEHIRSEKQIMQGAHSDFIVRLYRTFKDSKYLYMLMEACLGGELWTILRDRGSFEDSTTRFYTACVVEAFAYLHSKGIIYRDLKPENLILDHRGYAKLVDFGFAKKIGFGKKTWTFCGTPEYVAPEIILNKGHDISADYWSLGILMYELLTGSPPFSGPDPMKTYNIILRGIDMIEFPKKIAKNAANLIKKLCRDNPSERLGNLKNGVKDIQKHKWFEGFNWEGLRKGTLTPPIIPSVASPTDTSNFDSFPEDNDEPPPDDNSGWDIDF
# Experimental: (§1) Determination of Protein Kinase A and Protein Kinase G Inhibition
# (§2) To measure PKA and PKG1-beta inhibition, IC50 values were determined according to the following protocol:
# (§3) Active recombinant human PKG1-beta (full-length, with N-terminal His-tag) was purchased from Millipore GmbH, Schwalbach, Germany. Active recombinant human PKA (residues 1-351, N-terminal His-tag) was obtained from Invitrogen, Karlsruhe, Germany. The peptide substrate, Fluorescein-[…]-COOH, was obtained from JPT Peptide Technologies, Berlin, Germany. Adenosine-5′-triphosphate (ATP), bovine serum albumine (BSA), dimethylsulphoxide (DMSO), 4-(2-Hydroxyethyl)piperazine-1-ethanesulfonic acid (Hepes), Brij-35, dithiothreitol (DTT) and Pluronic F-68 were purchased from Sigma-Aldrich, Munich, Germany. Tris(hydroxymethyl)-aminomethane (Tris), magnesium chloride, NaOH, 1M HCl and EDTA were obtained from Merck Biosciences, Darmstadt, Germany. “Complete” protease inhibitor was from Roche Diagnostics, Mannheim, Germany.
# (§4) Test compounds were diluted to the appropriate concentrations in buffer 1 (25 mM Tris-HCl, pH 7.4, 5 mM MgCl2, 2 mM DTT, 0.02% (w/v) BSA, 0.01% Pluronic F-68 and 3% DMSO). PKG1-beta and PKA were diluted to concentrations of 150 ng/ml and 30 ng/ml, respectively, in buffer 2. The peptide substrate and ATP were diluted to concentrations of 3 μM and 120 μM, respectively, in the buffer 2. Two μl of the compound solution were mixed with 2 μl of the diluted enzyme in a 384-well small volume microtiter plate (Greiner, Bio-One, Frickenhausen, Germany), and the kinase reaction was initiated by addition of 2 μl of the solution containing peptide substrate and ATP. After 60 min incubation at 32° C., the reaction was stopped by addition of 20 μl of a solution containing 100 mM Hepes-NaOH, pH 7.4, 0.015% (v/v) Brij-35, 45 mM EDTA and 0.227% chip coating reagent 1 (Caliper Lifescience Inc, Hopkinton, Mass.). Phosphorylation of the substrate peptide was then detected on a Caliper 3000 instrument essentially as described by Pommereau et al (J. Biomol. Screening 9(5), 409-416, 2004). Separation conditions were as follows: Pressure −1.3 psi, upstream voltage −1562 V, downstream voltage −500 V, sample sip time 200 ms. Positive controls (buffer 1 instead of compound) and negative controls (buffer 1 instead of compound and buffer 2 instead of kinase solution) were run in parallel on each plate. The following products/compounds were tested in said assay by using the respective form (salt or free base) obtained as in the examples described above and the following activities were measured.
# [2] = biological target: T2, human recombinant ROCK II (Homo sapiens, UniProt O75116); test: Determination of Rho kinase inhibition (Caliper peptide phosphorylation assay); settings: 60 min at 32° C., negative decadal logarithm of the IC50
# T2 construct: N-terminal His6-tagged recombinant human ROCK-II residues 11-552; His6 (N); purchased Millipore GmbH, Schwalbach, Germany
# Experimental: Determination of Rho Kinase Inhibition
# To measure Rho-kinase inhibition, IC50 values were determined according to the following protocol:
# Active human recombinant ROCK II (N-terminal His6-tagged recombinant human ROCK-II residues 11-552) was purchased from Millipore GmbH, Schwalbach, Germany. The peptide substrate, Fluorescein-[…]-COOH, was obtained from JPT Peptide Technologies, Berlin, Germany. Adenosine-5′-triphosphate (ATP), bovine serum albumine (BSA), dimethylsulphoxide (DMSO), 4-(2-Hydroxyethyl)piperazine-1-ethanesulfonic acid (Hepes), Brij-35, dithiothreitol (DTT) and Pluronic F-68 were purchased from Sigma-Aldrich, Munich, Germany. Tris(hydroxymethyl)-aminomethane (Tris), magnesium chloride, NaOH, 1M HCl and EDTA were obtained from Merck Biosciences, Darmstadt, Germany. “Complete” protease inhibitor was from Roche Diagnostics, Mannheim, Germany.
# Test compounds were diluted to the appropriate concentrations in buffer 1 (25 mM Tris-HCl, pH 7.4, 5 mM MgCl2, 2 mM DTT, 0.02% (w/v) BSA, 0.01% Pluronic F-68 and 3% DMSO). The ROCK II enzyme was diluted to a concentration of 100 ng/mL in buffer 2 (25 mM Tris-HCl, pH 7.4, 5 mM MgCl2, 2 mM DTT and 0.02% (w/v) BSA). The peptide substrate and ATP were diluted to concentrations of 3 μM and 120 μM, respectively, in the buffer 2. Two μl of the compound solution were mixed with 2 μl of the diluted enzyme in a 384-well small volume microtiter plate (Greiner, Bio-One, Frickenhausen, Germany), and the kinase reaction was initiated by addition of 2 μl of the solution containing peptide substrate and ATP. After 60 min incubation at 32° C., the reaction was stopped by addition of 20 μl of a solution containing 100 mM Hepes-NaOH, pH 7.4, 0.015% (v/v) Brij-35, 45 mM EDTA and 0.227% chip coating reagent 1 (Caliper Lifescience Inc, Hopkinton, Mass.). Phosphorylation of the substrate peptide was then detected on a Caliper 3000 instrument essentially as described by Pommereau et al (J. Biomol. Screening 9(5), 409-416, 2004). Separation conditions were as follows: Pressure −1.3 psi, upstream voltage −1562 V, downstream voltage −500 V, sample sip time 200 ms. Positive controls (buffer 1 instead of compound) and negative controls (buffer 1 instead of compound and buffer 2 instead of ROCK II) were run in parallel on each plate.
# The following products/compounds were tested in said assay by using the respective form (salt or free base) obtained as in the examples described above and the following activities were measured
# [3] = biological target: T3, recombinant human PKA (Homo sapiens, UniProt P17612); test: Determination of Protein Kinase A inhibition (Caliper peptide phosphorylation assay); settings: recombinant human PKA versus ROCK II
# T3 construct: Active recombinant human PKA (residues 1-351, N-terminal His-tag); His-tag (N); purchased Invitrogen, Karlsruhe, Germany
# Experimental: as §1, §2, §3, §4
# T2 sequence (O75116 11-552): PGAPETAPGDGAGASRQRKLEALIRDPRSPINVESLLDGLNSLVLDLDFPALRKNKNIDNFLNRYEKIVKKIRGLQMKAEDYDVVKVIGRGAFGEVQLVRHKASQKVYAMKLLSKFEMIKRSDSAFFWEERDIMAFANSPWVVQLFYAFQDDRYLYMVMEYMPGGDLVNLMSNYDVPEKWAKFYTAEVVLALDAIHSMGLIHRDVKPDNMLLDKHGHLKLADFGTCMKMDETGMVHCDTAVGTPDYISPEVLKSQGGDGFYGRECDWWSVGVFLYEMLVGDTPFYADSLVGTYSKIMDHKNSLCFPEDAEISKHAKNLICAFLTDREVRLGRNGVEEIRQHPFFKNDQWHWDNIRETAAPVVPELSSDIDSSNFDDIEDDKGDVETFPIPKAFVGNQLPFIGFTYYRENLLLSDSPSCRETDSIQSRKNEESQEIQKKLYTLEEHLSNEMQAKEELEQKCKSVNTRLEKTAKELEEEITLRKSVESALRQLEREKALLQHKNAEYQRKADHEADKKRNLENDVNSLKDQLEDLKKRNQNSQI
Selectivity against PKG [1],IC50 [2] [nM],Selectivity against PKA [3],pIC50 [2],SMILES
>10,10 to 100,>100,,"CC(N)(c1ccc(F)cc1)C1CCC(Oc2cc3cc[nH]c(=O)c3cc2Cl)CC1 (single isomer, unassigned) [Example 116, 6-{4-[1-Amino-1-(4-fluoro-phenyl)-ethyl]-cyclohexyloxy}-7-chloro-2H-isoquinolin-1-one]"
>100,,>300,++++++ (7.0≦pIC50<8.0),"CC(N)C[C@]1(c2ccc(F)cc2)CC[C@H](Oc2cc3cc[nH]c(=O)c3cc2Cl)CC1 (stereo partly drawn) [Example 109, cis-6-[4-(2-Amino-propyl)-4-(4-fluoro-phenyl)-cyclohexyloxy]-7-chloro-2H-isoquinolin-1-one]"
>100,,>100,+++++ (6.0≦pIC50<7.0),"CCCC(N)[C@]1(c2ccccc2)CC[C@@H](Oc2cc3cc[nH]c(=O)c3cc2Cl)CC1 (stereo partly drawn) [Example 14, trans-6-[4-(1-Amino-butyl)-4-phenyl-cyclohexyloxy]-7-chloro-2H-isoquinolin-1-one]"
>10,,>300,,"COc1ccc(C(C)(N)C2CCC(Oc3cc4cc[nH]c(=O)c4cc3Cl)CC2)cc1 (stereo not shown) [Example 117, 6-{4-[1-Amino-1-(4-methoxy-phenyl)-ethyl]-cyclohexyloxy}-7-chloro-2H-isoquinolin-1-one]"
>300,≤ 10,>1000,,"Cc1ccc(C(N)C2CCC(Oc3cc4cc[nH]c(=O)c4cc3Cl)CC2)cc1 (single isomer, unassigned) [Example 38, 6-[4-(Amino-p-tolyl-methyl)-cyclohexyloxy]-7-chloro-2H-isoquinolin-1-one]"
>100,,>100,+++++ (6.0≦pIC50<7.0),"CC(C)C(N)[C@]1(c2ccccc2)CC[C@@H](Oc2cc3cc[nH]c(=O)c3cc2Cl)CC1 (stereo partly drawn) [Example 19, trans-6-[4-(1-Amino-2-methyl-propyl)-4-phenyl-cyclohexyloxy]-7-chloro-2H-iso quinolin-1-one]"
>1000,,>1000,+++++++ (8.0≦pIC50),"CCC(N)[C@]1(c2ccc(OC(F)(F)F)cc2)CC[C@H](Oc2cc3cc[nH]c(=O)c3cc2Cl)CC1 (stereo partly drawn) [Example 70, cis-6-[4-(1-Amino-propyl)-4-(4-trifluoro-methoxy-phenyl)-cyclohexyloxy]-7-chloro-2H-isoquinolin-1-one]"
>10,,>100,+++++ (6.0≦pIC50<7.0),"CCC(N)[C@]1(c2cccc(OC(F)(F)F)c2)CC[C@H](Oc2cc3cc[nH]c(=O)c3cc2C)CC1 (stereo partly drawn) [Example 85, cis-6-[4-(1-Amino-propyl)-4-(3-trifluoro-methoxy-phenyl)-cyclo-hexyloxy]-7-methyl-2H-iso quinolin-1-one]"
>10,,>300,,"CC(N)(c1ccccc1)C1CCC(Oc2cc3cc[nH]c(=O)c3cc2Cl)CC1 (stereo not shown) [Example 34, 6-[4-(1-Amino-1-phenyl-ethyl)-cyclohexyloxy]-7-chloro-2H-isoquinolin-1-one]"
>10,,>100,,"CCCC(C)(N)C1CCC(Oc2cc3cc[nH]c(=O)c3cc2Cl)CC1 (single isomer, unassigned) [Example 124, 6-{4-[1-Amino-1-methyl-n-butyl]-cyclohexyloxy}-7-chloro-2H-isoquinolin-1-one]"
>10,,>100,,"NC(C1CCC(Oc2cc3cc[nH]c(=O)c3cc2Cl)CC1)C1CC1 (single isomer, unassigned) [Example 132, 6-[4-(Amino-cyclopropyl-methyl)-cyclohexyloxy]-7-chloro-2H-isoquinolin-1-one]"
>100,,>1000,,"CCC(N)[C@]1(c2ccc(C)c(OC)c2)CC[C@H](Oc2cc3cc[nH]c(=O)c3cc2Cl)CC1 (stereo partly drawn) [Example 64, cis-6-[4-(1-Amino-propyl)-4-(3-methoxy-4-methyl-phenyl)-cyclohexyloxy]-7-chloro-2H-isoquinolin-1-one]"

SMILES,Selectivity against PKG [1],IC50 [2] [nM],Selectivity against PKA [3],pIC50 [2]
"CCC(N)[C@]1(c2ccccc2Cl)CC[C@H](Oc2cc3cc[nH]c(=O)c3cc2Cl)CC1 (stereo partly drawn) [Example 10, cis-6-[4-(1-Amino-propyl)-4-(2-chloro-phenyl)-cyclohexyloxy]-7-chloro-2H-iso quinolin-1-one]",>100,,>100,+++++++ (8.0≦pIC50)
"CC(C)CC(N)[C@]1(c2ccccc2)CC[C@@H](Oc2cc3cc[nH]c(=O)c3cc2Cl)CC1 (stereo partly drawn) [Example 20, trans-6-[4-(1-Amino-3-methyl-butyl)-4-phenyl-cyclohexyloxy]-7-chloro-2H-iso quinolin-1-one]",>100,,>100,++++++ (7.0≦pIC50<8.0)
NC(C1CC1)[C@]1(c2ccccc2)CC[C@H](Oc2cc3cc[nH]c(=O)c3cc2Cl)CC1 (stereo partly shown) [Example 26],>300,,>1000,+++++++ (8.0≦pIC50)
